Calls of active or inactive are those of the source. Rule as the data show it: active = AC50 below about 11 µM.
What follows are molecules tested on B cell line, TNFa signaling counterscreen reporter (assay: TNFa signaling inhibitors in B cell line, dose response, counter-screen (AID 1259334);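 also: cells stimulated with TNFa after compound preincubation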).

Row | SMILES | AC50
1 | C[C@@H]1CN([C@H](C)CO)C(=O)c2cc(NS(=O)(=O)c3cccs3)ccc2O[C@@H](C)CCCCO[C@H]1CN(C)Cc1ccc(Cl)c(Cl)c1 | > 20 µM (inactive)
2 | CC1CC(C)C(=NNC(N)=O)C(C(O)CC2CCC(=O)NC2=O)C1 (configuration not stated) | 0.188 µM
3 | COc1ccc(C#Cc2ccc([C@@H]3[C@H](CO)N4CCCCN(C(=O)Nc5cccc(F)c5)C[C@@H]34)cc2)cc1 | 4.57 µM
4 | C[C@@H]1CN([C@@H](C)CO)C(=O)c2ccccc2-c2ccccc2CO[C@H]1CN(C)Cc1ccccc1C(F)(F)F | 7.43 µM
5 | O=C(COC(=O)c1ccccc1)c1ccc2c(c1)OCCO2 | 0.986 µM
6 | COc1cc2cc(C(=O)N3CC(COS(C)(=O)=O)c4ccc(O)cc43)[nH]c2c(OC)c1OC (configuration not stated) | 0.00612 µM
7 | CC(=O)OC(C)(C)/C=C/C(=O)C(C)(O)C1C(O)CC2(C)C3CC=C4C(CC(O)C(=O)C4(C)C)C3(C)C(=O)CC12C (configuration not stated) | 0.029 µM
8 | Cc1cc(C(=O)COC(=O)c2ccco2)c(C)n1Cc1ccco1 | 0.111 µM
9 | Cc1ccc(S(=O)(=O)CCC(=O)N(CCCN2CCOCC2)c2nc3ccccc3s2)cc1 | 7.38 µM
10 | O=C(NC(=S)/C(=C1\CCCCCN1)[N+](=O)[O-])c1ccccc1 | 0.12 µM
11 | CCC(=O)NC(c1ccccc1OC)c1ccc2cccnc2c1O (configuration not stated) | 9.46 µM
12 | CC1=CC2OC3CC4OC(=O)C=CC=CC(C(C)O)OCC(O)C5(C)OC5C(=O)OCC2(CC1O)C4(C)C31CO1 (configuration not stated) | 0.0273 µM
13 | C[C@@H]1C[C@@H]([C@H](O)CC2CC(=O)NC(=O)C2)C(=O)[C@@H](C)C1 | 0.199 µM
14 | Cn1cc(C2=C(c3cn(CCCSC(=N)N)c4ccccc34)C(=O)NC2=O)c2ccccc21 | 0.305 µM
15 | CC1OC(OC2CC(O)C3(CO)C4C(O)CC5(C)C(C6=CC(=O)OC6)CCC5(O)C4CCC3(O)C2)C(O)C(O)C1O (configuration not stated) | 0.109 µM
16 | CC(C)OC(=O)c1cn(Cc2c(F)cccc2F)c2sc(-c3ccc(NC(=O)C(C)C)cc3)c(CN(C)Cc3ccccc3)c2c1=O | 8.24 µM
17 | Cc1cccc(-c2ccc(C3[C@@H]4CN(C(=O)Nc5ccc(C(F)(F)F)cc5)C[C@H]3N4)cc2)c1 (some centres not stated) | > 20 µM (inactive)
18 | c1ccc(OCCSc2nnc3sc4ccccc4n23)cc1 | 2.98 µM
19 | COc1ccc(C(=O)O/N=C2\C(=O)N(C)c3ccccc32)cc1 | 7.39 µM
20 | CNc1c2cccc(C)c2nc2c(C(=O)NCCN(C)C)cccc12 | 0.583 µM
21 | Cc1ccc(S(=O)(=O)N[C@@H](Cc2ccccc2)C(=O)CCl)cc1 | 1.2 µM
22 | C[C@@H]1CN([C@@H](C)CO)C(=O)c2c(c3ccccc3n2C)-c2ccccc2CO[C@H]1CN(C)Cc1cccc(C(F)(F)F)c1 | 6.02 µM
23 | COc1ccc(CN(CCC(c2ccccc2)c2ccc(OC(C)C)cc2)C(=O)CCl)cc1OC (configuration not stated) | 1.46 µM
24 | COC(=O)C1=C(C(=O)OC)C2OC1c1cc3ccccc3cc12 | 0.519 µM

Row | SMILES | AC50
25 | O=C(/C=C/c1ccccc1)CC(O)(c1ccccc1)C(F)(F)C(F)F (configuration not stated) | 5.06 µM
26 | COc1ccc(/C=N/Nc2ncccc2[N+](=O)[O-])c(OC)c1 | 5.22 µM
27 | C[C@@H]1CN([C@@H](C)CO)C(=O)c2c(c3ccccc3n2C)-c2ccccc2CO[C@@H]1CN(C)C(=O)c1cc(Cl)cc(Cl)c1 | > 20 µM (inactive)
28 | N#Cc1cccc(-c2ccc(C3[C@@H]4CN(C(=O)Nc5ccc(C(F)(F)F)cc5)C[C@H]3N4)cc2)c1 (some centres not stated) | 10 µM
29 | C[C@H](CO)N1C[C@H](C)[C@H](CN(C)C(=O)Nc2cccc(Cl)c2Cl)OCc2ccccc2-c2c(n(C)c3ccccc23)C1=O | 2.81 µM
30 | COC(=O)C[C@](O)(CCCC(C)(C)O)C(=O)O[C@@H]1C(OC)=C[C@]23CCCN2CCc2cc4c(cc2[C@H]13)OCO4 | < 0.0046 µM
31 | c1ccc2sc(-c3ccc4c(c3)OCO4)nc2c1 | 8.09 µM
32 | COCC(C)n1c(C)cc(C(=O)COC(=O)c2cccn2C)c1C (configuration not stated) | 0.76 µM
33 | CCCCNC(=O)C1(C)CCN1C(=O)c1cc(-c2cccs2)oc1C (configuration not stated) | 2.59 µM
34 | CC1CCOC(=O)C=CC=CC(=O)OC2CC3OC4C5OC5(C)C(O)CC4(COC(=O)C1O)C2(C)C31CO1 (configuration not stated) | 0.0338 µM
35 | CC(C)(C)CC(C)(C)c1ccc(OCCOCC[N+](C)(C)Cc2ccccc2)cc1 | 1.75 µM
36 | C[C@H](CO)N1C[C@H](C)[C@H](CN(C)S(=O)(=O)c2ccc(Cl)cc2)Oc2c(NC(=O)Nc3ccc(F)cc3)cccc2C1=O | 4.98 µM
37 | Nc1ccc(-c2cccc3c(=O)cc(N4CCOCC4)oc23)cc1 | 8.56 µM
38 | O=C(Nc1ccccn1)c1ccc(-c2ccccc2)cc1 | 2.91 µM
39 | CC(C)NC(=O)N1Cc2cc(C(=O)NC3Cc4ccccc4C3)nc(-c3cccc(-c4cccnc4)c3)c2[C@@H]1CCO | 7.2 µM
40 | CC(C)(C)CC(C)(C)c1ccc(O)c(Cc2ccc(Cl)cc2Cl)c1 | 5.5 µM
41 | Cc1cc(C(=O)COC(=O)CNC(=O)c2ccccc2)c(C)n1CC1CCCO1 (configuration not stated) | 5.61 µM
42 | C[C@@H]1CN([C@@H](C)CO)C(=O)c2ccccc2-c2ccccc2CO[C@@H]1CN(C)Cc1ccc(Oc2ccccc2)cc1 | > 20 µM (inactive)
43 | COc1cccc2c1C(=O)c1c(O)c3c(c(O)c1C2=O)C[C@@](O)(C(C)=O)C[C@@H]3O[C@H]1C[C@H](N)[C@H](O)[C@H](C)O1 | 0.359 µM
44 | COC(=O)C1=C(C(=O)OC)C(C(=O)OC)C(C(=O)OC)C(C(=O)OC)(C(=O)OC)C(C(=O)OC)=C1C(=O)OC (configuration not stated) | 4.62 µM
45 | COc1ccc(-c2cc(-c3ccccc3)c(C#N)c(S(C)=O)n2)cc1 (configuration not stated) | 1.53 µM
46 | Cc1cc(C)nc(Sc2ncnc(N)c2[N+](=O)[O-])n1 | 2.53 µM
47 | O=C1CC(c2ccc3c(c2)OCO3)Sc2nc3ccccc3n21 (configuration not stated) | 3.83 µM
